Some targets named below: Carbonic anhydrase 7 (Homo sapiens, UniProt P43166); Carbonic anhydrase 3 (Homo sapiens, UniProt P07451); Carbonic anhydrase 12 (Homo sapiens, UniProt O43570); Carbonic anhydrase 6 (Homo sapiens, UniProt P23280); Carbonic anhydrase 4 (Homo sapiens, UniProt P22748); Carbonic anhydrase 13 (Mus musculus, UniProt Q9D6N1); Carbonic anhydrase 14 (Homo sapiens, UniProt Q9ULX7).
In experiment [1] the target is Carbonic anhydrase 5A, mitochondrial (Homo sapiens, UniProt P35218).
Experiment [2] deals with Carbonic anhydrase 5B, mitochondrial (Homo sapiens, UniProt Q9Y2D0).
Another experiment deals with T1, Carbonic anhydrase 15 (Mus musculus, UniProt Q99N23).
T1 sequence (Q99N23 whole entry): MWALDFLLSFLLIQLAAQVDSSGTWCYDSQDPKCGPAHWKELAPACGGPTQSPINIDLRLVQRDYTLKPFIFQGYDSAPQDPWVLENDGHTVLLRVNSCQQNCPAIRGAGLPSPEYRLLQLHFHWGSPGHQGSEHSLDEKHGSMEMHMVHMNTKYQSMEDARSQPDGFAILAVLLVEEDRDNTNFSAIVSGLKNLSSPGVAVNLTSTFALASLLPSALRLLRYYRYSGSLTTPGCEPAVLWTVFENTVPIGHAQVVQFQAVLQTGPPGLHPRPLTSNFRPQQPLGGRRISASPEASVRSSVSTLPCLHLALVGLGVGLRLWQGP

Our source for the Ki values is ChEMBL document CHEMBL1155543 (Bioorg Med Chem Lett, 2010).

pKi: −log10 of the molar value.

Chain of Carbonic anhydrase 3 (P07451 whole entry): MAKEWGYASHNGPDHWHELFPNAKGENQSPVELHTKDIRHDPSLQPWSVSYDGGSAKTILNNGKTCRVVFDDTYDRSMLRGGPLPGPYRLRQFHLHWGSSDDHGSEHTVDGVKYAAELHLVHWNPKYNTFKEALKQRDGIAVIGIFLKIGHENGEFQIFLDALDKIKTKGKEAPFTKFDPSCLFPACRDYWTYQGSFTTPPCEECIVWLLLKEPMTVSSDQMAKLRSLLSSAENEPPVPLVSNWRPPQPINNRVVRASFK
Chain of Carbonic anhydrase 13 (Q9D6N1 whole entry): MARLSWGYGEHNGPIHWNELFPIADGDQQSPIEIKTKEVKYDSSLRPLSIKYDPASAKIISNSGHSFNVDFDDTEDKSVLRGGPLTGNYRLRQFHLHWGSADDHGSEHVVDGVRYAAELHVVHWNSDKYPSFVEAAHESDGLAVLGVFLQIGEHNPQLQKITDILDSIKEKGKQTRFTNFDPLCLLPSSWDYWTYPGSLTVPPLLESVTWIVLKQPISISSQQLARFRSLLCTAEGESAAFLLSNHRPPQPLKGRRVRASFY
Chain of Carbonic anhydrase 5B, mitochondrial (Q9Y2D0 whole entry): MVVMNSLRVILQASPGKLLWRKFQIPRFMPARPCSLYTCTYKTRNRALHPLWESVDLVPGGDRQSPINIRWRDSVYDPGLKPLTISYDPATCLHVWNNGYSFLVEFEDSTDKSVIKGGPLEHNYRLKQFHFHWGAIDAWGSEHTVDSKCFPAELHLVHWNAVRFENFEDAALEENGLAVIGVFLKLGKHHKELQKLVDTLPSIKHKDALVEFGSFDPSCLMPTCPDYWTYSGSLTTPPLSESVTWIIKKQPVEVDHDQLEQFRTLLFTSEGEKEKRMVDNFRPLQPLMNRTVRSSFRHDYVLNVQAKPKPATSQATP
Chain of Carbonic anhydrase 7 (P43166 whole entry): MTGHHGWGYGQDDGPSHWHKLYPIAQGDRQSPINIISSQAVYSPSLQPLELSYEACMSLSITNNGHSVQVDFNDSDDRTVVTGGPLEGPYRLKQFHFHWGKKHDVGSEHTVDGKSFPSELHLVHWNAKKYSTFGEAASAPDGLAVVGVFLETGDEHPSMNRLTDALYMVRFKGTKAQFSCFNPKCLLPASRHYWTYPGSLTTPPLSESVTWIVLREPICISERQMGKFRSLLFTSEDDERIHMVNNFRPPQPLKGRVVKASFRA
Chain of Carbonic anhydrase 12 (O43570 whole entry): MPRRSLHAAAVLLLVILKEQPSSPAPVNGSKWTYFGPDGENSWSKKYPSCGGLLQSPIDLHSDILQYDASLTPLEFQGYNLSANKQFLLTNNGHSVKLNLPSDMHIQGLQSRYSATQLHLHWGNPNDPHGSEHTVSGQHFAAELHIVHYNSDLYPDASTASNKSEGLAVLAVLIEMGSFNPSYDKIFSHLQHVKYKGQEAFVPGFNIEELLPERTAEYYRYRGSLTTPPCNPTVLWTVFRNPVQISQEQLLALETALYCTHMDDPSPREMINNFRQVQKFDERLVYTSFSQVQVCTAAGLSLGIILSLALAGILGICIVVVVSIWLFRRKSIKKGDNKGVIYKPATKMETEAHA
Chain of Carbonic anhydrase 5A, mitochondrial (P35218 whole entry): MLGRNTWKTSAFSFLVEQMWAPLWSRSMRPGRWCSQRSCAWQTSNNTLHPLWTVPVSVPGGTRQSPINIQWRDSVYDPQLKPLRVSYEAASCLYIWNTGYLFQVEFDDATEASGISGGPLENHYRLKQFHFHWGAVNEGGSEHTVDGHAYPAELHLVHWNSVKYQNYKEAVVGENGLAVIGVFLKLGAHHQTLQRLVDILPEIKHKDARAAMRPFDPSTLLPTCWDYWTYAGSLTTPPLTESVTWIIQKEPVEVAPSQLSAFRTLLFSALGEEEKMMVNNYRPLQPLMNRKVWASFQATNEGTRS
Chain of Carbonic anhydrase 4 (P22748 whole entry): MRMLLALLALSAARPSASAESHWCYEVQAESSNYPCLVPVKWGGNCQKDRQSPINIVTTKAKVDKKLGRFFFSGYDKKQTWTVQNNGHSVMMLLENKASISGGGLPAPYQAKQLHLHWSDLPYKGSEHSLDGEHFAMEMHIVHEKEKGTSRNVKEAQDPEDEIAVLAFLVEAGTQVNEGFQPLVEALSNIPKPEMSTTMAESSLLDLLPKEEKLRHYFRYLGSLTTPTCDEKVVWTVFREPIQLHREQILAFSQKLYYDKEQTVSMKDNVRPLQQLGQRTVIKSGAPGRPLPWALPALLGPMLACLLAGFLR
Chain of Carbonic anhydrase 6 (P23280 whole entry): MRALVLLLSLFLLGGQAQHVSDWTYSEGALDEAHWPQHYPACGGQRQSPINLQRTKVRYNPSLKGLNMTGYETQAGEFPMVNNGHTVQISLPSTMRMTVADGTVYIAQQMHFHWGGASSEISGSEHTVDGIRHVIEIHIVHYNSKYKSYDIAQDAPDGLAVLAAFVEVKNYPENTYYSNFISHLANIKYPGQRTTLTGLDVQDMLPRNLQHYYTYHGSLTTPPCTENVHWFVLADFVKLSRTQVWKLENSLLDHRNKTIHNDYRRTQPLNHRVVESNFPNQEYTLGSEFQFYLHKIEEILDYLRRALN
Chain of Carbonic anhydrase 14 (Q9ULX7 whole entry): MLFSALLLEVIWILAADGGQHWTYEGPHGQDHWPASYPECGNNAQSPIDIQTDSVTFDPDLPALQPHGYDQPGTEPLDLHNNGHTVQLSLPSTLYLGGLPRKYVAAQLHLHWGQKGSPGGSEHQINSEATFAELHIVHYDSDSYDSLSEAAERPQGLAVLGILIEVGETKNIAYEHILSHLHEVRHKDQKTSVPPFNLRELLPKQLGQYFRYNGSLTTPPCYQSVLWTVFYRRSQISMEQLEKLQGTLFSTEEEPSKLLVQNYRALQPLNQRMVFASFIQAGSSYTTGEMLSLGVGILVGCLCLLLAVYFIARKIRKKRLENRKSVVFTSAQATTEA

As for `CC1(C)OB(c2ccc(NS(N)(=O)=O)cc2)OC1(C)C`, the pKi at Carbonic anhydrase 7 was 7.08; at Carbonic anhydrase 3 it was 5.06; on Carbonic anhydrase 12 it was 8.05; on Carbonic anhydrase 6, 6.13; in experiment [1] it was 7.06; in experiment [2], 7.12. The pKi at Carbonic anhydrase 15 was 7.05; at Carbonic anhydrase 4, 5.06; on Carbonic anhydrase 13, 6.00; on Carbonic anhydrase 14 it was 8.15.
As for `NS(N)(=O)=O` [SULFAMIDE], at Carbonic anhydrase 3, the pKi is 2.96.
The same measure, in the same setting: with `CC1(C)O[C@@H]2[C@@H](CO[C@@]3(CNS(N)(=O)=O)OC(C)(C)O[C@@H]23)O1` the figure was 2.40.
